{"source": "patent US20120121692A1", "about": "“COMPOUNDS AND COMPOSITIONS COMPRISING CDK INHIBITORS AND METHODS FOR TREATING CANCER” (SHANDONG UNIVERSITY, priority 2009, published 2012)", "key": {"[1]": {"test_system": "HCT116 cells", "assay": "MTT cytotoxicity screening, human colon cancer cell line HCT116", "assay_type": "cell-based", "conditions": "Homo sapiens, HCT-116, 48 hrs incubation, absorbance 490 nm, primary screening, read-out: IC50", "summary_of_the_method": "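HCT116 cells seeded at 2.5×10^4 cells/ml, treated 24 h later for 48 h with compounds in medium (final DMSO 0.1%-0.001% v/v); dose series 100 μM–1 μM or 10 μM–62.5 nM, primary screen at 100 and 10 μM. Viability read by MTT (4 h, 37° C), formazan dissolved in DMSO, absorbance 490 nm.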"}, "[2]": {"test_system": "Human Colon Carcinoma HCT116 xenograft", "assay": "In vivo human colon carcinoma HCT116 xenograft test", "parameters": "species or system BALB/cASlac-nu mice", "description": "(E)-3-(2-Chlorophenyl)-1-(2-hydroxy-4,6-dimethoxy-3-(1,2,3,6-tetrahydropyridine-4-yl)phenyl)-2-propylene-1-one hydrochloride, B2, was dissolved in a pyrogen-free, sterile PBS solution containing 1% dimethyl sulfoxide (DMSO). For daily injections, a freshly prepared solution was stored at 4° C. Before injection the B2 solution was warmed up to 37° C. and vigorously agitated in a vortex. B2 was administered through intraperitoneal injection (i.p.), 2.5, or 7.5 mg/kg/d, 20 days.\nThe positive control animals received 5 mg/kg/d doxorubicin intraperitoneally (i.p.), and the blank group mice received PBS solution containing 1% DMSO i.p., 5 mL/kg/d.\nFemale BALB/cASlac-nu mice (SLAC LABORATORY ANIMAL, Shanghai), ages 4 to 5 weeks, were used in this procedure. Animals were maintained according to the guidelines established by the National Institutes of Health.\nThe Human Colon Carcinoma HCT116 were grown in RPMI-1640 medium with 10% fetal calf serum and L-glutamine, and the cells were maintained using standard tissue culture conditions.\nFor the production of s.c. tumors, 1×10^7 cells in 0.1 mL of medium without serum were inoculated in the right flank of mice. After the tumors were implanted and reached a palpable size, the mice were randomized into control and treatment groups (n=6)\nSubcutaneous tumors were measured with caliper, and the weight of the animals recorded at least three times a week. Tumor volume was estimated from caliper measurements of two perpendicular dimensions of the tumor in millimeters using the formula:\nTumor Volume(mm^3)=length(mm)×width(mm)^2/2\nTumor Inhibition Ratio (%)=(the blank group tumor weight average−the treatment group tumor weight average)/the blank group tumor weight average×100\nRelative Tumor Volume (RTV)=Vt/V0. V0: the tumor volume measured at the time of randomization; Vt: the tumor volume measured each time during the administration.\nRelative Increment Ratio T/C (%)=the treatment group(T) RTV/the blank control group(C) RTV×100. T/C(%)>40: inefficacy; T/C(%)≦40, and P<0.05: utility."}}, "data": [{"compound": "COc1cc(OC)c(C2=CCNCC2)c(O)c1C(=O)/C=C/c1ccccc1Cl", "note": "[Compound B2, (E)-3-(2-chlorophenyl)-1-(2-hydroxy-4,6-dimethoxy-3-(1,2,3,6-tetrahydropyridine-4-yl)phenyl)-2-propylene-1-one]", "values": [{"measurement": "IC50", "setting": "[1]", "value": 100, "unit": "nM"}, {"measurement": "% inhibit. (tumor inhibition ratio by tumor weight)", "setting": "[2]; 2.5 mg/kg/d × 20 d i.p.", "value": 88.2, "unit": "%"}, {"measurement": "RTV (relative tumor volume Vt/V0)", "setting": "[2]; 2.5 mg/kg/d × 20 d i.p.", "value": "2.86 ± 0.202"}, {"measurement": "TIV (%)", "setting": "[2]; 2.5 mg/kg/d × 20 d i.p.", "value": 19.0, "unit": "%"}, {"measurement": "Tumor wgt.", "setting": "[2]; 2.5 mg/kg/d × 20 d i.p.", "value": "0.041 ± 0.0093", "unit": "g"}, {"measurement": "Tumor vol. (mm^3) Final", "setting": "[2]; 2.5 mg/kg/d × 20 d i.p.", "value": "121 ± 78.2", "unit": "mm^3"}, {"measurement": "Tumor vol. (mm^3) Initial", "setting": "[2]; 2.5 mg/kg/d × 20 d i.p.", "value": "53 ± 28.0", "unit": "mm^3"}, {"measurement": "% inhibit. (tumor inhibition ratio by tumor weight)", "setting": "[2]; 7.5 mg/kg/d × 20 d i.p.", "value": "−25.6", "unit": "%"}, {"measurement": "RTV (relative tumor volume Vt/V0)", "setting": "[2]; 7.5 mg/kg/d × 20 d i.p.", "value": "12.57 ± 0.667"}, {"measurement": "TIV (%)", "setting": "[2]; 7.5 mg/kg/d × 20 d i.p.", "value": 83.3, "unit": "%"}, {"measurement": "Tumor wgt.", "setting": "[2]; 7.5 mg/kg/d × 20 d i.p.", "value": "0.437 ± 0.3105", "unit": "g"}, {"measurement": "Tumor vol. (mm^3) Final", "setting": "[2]; 7.5 mg/kg/d × 20 d i.p.", "value": "777 ± 459.5", "unit": "mm^3"}, {"measurement": "Tumor vol. (mm^3) Initial", "setting": "[2]; 7.5 mg/kg/d × 20 d i.p.", "value": "58 ± 39.7", "unit": "mm^3"}, {"measurement": "optimal T/C (relative increment ratio)", "setting": "[2]; HCT116 xenografts, dosage of 2.5 mg/kg/day", "value": 19.0, "unit": "%"}, {"measurement": "toxicity during the administration", "setting": "[2]; two B2 treatment groups, 2.5 or 7.5 mg/kg/d i.p., 20 days", "value": "no significant toxicity was found"}]}]}
